Measurements reported in patent US5420132A, “Substituted benzodioxins” (Adir et Compagnie, priority 1993, dated 1995).
Each block holds one compound with its values, some of them ahead of it.

Columns and labels:
[1] = test system: Human red blood corpuscles; test: Measurement of haemolysis induced by AAPH; format: cell-based; settings: Erythrocyte, 0.5 h, 10^-5 M, 30 minutes at 37° C.
Method: Measurement of haemolysis induced by AAPH
Human red blood corpuscles are placed for a period of 30 minutes at 37° C. in the presence of AAPH, which generates free radicals at a constant rate, and in the presence or absence of the compounds being studied. The optical density of the supernatant is measured at 403 nm compared with the control without AAPH. The percentage inhibition of haemolysis is calculated by comparison with the 100% haemolysis obtained for the AAPH control.

thoracic aorta of rats = test: Anticalcic activity (contraction induced by potassium chloride); parameters: species or system male Wistar rats; settings: Rattus norvegicus; 60 mM KCl; 2 preparations, 8 concentrations; read-out: IC50, inhibition of thoracic aorta contraction induced by potassium chloride
Method: The anticalcic activity was studied in the thoracic aorta of male Wistar rats. Once they have been introduced into experimental vessels containing a physiological solution, the vascular rings are subjected to an initial tension of 2 g. The preparations are then placed in the presence of a hyperpotassic solution (60 mM of potassium chloride) in order to obtain a sustained contractile response. Increasing concentrations of the product being tested are then added for the period necessary to obtain a stable effect.
Each compound of the invention is thus tested in 2 preparations at 8 concentrations (10^-8 M to 3×10^-5 M) to obtain a concentration-effect curve and determine the IC50.

[2] = Hypolipaemic activity in hypercholesterolaemic mice; format: in vivo; settings: 100 mg/kg p.o.; serum
Method: Groups each comprising 6 mice are rendered hypercholesterolaemic by a diet that is high in cholesterol and in cholic acid for 7 days. The compounds of the invention are administered p.o. (100 mg/kg) on the 6th and 7th day (half the dose being administered on day 6 and the other half on day 7). The animals are then left without food and drink for one night. The reduction in the concentration of cholesterol in the serum compared with hypercholesterolaemic control mice is then evaluated, as is also the reduction in concentration of lipoproteins (corresponding to the LDL-VLDL fractions), after precipitation by the addition of heparin to the serum, in the same hypercholesterolaemic mice compared with the control animals.

5-HT2 receptors = test: Serotoninergic activity (competition with [3H]ketanserine); format: binding, rat (male Wistar, cerebral cortex membranes); settings: 10 μM (n=3); [3H]ketanserine 0.5 nM, 40 min/25° C.
Method: The experiments are carried out on membranes prepared from the cerebral cortex of male Wistar rats (CERJ, le Genest St Isle). The binding measurements are carded out using ketanserine as reference compound. The conditions of the experiment are summarised below:
After incubation, the membranes are quickly filtered. The filtrates are then transferred to flasks containing scintillation liquid and the bound radioactivity is determined by a liquid scintillation counter (LS6000, Beckman). The affinity of the compounds of the invention for the 5-HT2 receptors is evaluated, at the concentration 10 μM (n=3), using competition experiments.

lipoxygenase = test: Measurement of lipoxygenase activities (B4 leukotriene release, calcium ionophore A 23 187); format: cell-based; settings: 10 μM; rabbit granulocytes; average of 3
Method: Measurement of lipoxygenase activities The measurements are carried out on rabbit granulocytes. The isolated granulocytes are stimulated in vitro by the calcium ionophore A 23 187. The B4 leukotrienes released in the extracellular medium are measured by Radio Immuno Assay (RIA). The results (average of 3 independent measurements) are expressed as a percentage inhibition compared with the control.

[3] = test system: platelet aggregation (rabbit plasma rich in platelets); test: Measurement of antiaggregation activity (sodium arachidonate induced); format: cell-based; settings: Oryctolagus cuniculus, sodium arachidonate (50 μ/ml), read-out: Minimum active concentration, inhibition of maximum non-reversible platelet aggregation
Method: Measurement of antiaggregation activity
In that study, the compounds of the invention (100 μ/ml) were tested with the aim of quantifying their ability to inhibit the maximum non-reversible platelet aggregation (rabbit plasma rich in platelets) induced by sodium arachidonate (50 μ/ml). Thus the minimum active concentration for the compound of Example 1 is 20 μM.

[4] = Antihypoxic activity in vivo (time until first gasps); parameters: species or system mice (Swiss CD 1); settings: 30 minutes before hypoxia, control 36 ± 4
Method: Male mice (Swiss CD 1 ) weighing from 25 to 30 g are, before any experiment, housed for one week under conditions customary for animals (20°-22° C., 55% humidity, light/darkness cycle 12/12, commercial feed and water as desired). The mice are placed in a box (7×5×5 cm) in which an atmosphere poor in oxygen is created by passing through a stream of air (96% N2, 4% O2, 12 l/min). The time taken until the first signs of suffocation (or "gasps") occur is measured. The mice receive a dose of the compounds to be tested by the intraperitoneal route 30 minutes before the hypoxia is induced. Vincamine is used as the reference drug.

native human LDLs = test: Protective activity against LDL oxidation (electrophoretic method, FPLC, Cu2+ induced); format: biochemical; settings: 10 μM; with Cu++; 24 hours
Method: Study of the protective activity against LDL oxidation (electrophoretic method)
The capacity of the compounds of the invention to decrease the proportions of oxidised LDLs was measured by incubating a preparation comprising native human LDLs, a Cu^2+ free radical generator, and the compounds to be tested for 24 hours. The oxidation products are determined by FPLC (Fast Protein Liquid Chromatography) in accordance with the method described by B. Vedie et al., Journal of Lipid Research, 32, 1359-1369, (1991). By that method it was possible to identify 5 peaks corresponding to different degrees of LDL oxidation. Peaks A and B correspond to the native forms of LDL and peaks C, D and E correspond to the different states of oxidation of the LDLs (peak E corresponding to the most oxidised form). The results are expressed as a percentage of the LDLs corresponding to those different states of oxidation.

SMILES: O=C(Nc1ccccc1)C1=COc2ccc(O)cc2O1 [Example 13, 7-HYDROXY-2-ANILINOCARBONYL-1,4-BENZODIOXIN]
inhibition at 10 µM [1]: 100%

SMILES: Oc1ccc2c(c1)OC=C(CN1CCN(C(c3ccc(F)cc3)c3ccc(F)cc3)CC1)O2 [Example 58, 6-HYDROXY-2-{4-[BIS-(4-FLUOROPHENYL)METHYL]PIPERAZIN-1- YLMETHYL}-1,4-BENZODIOXIN]
IC50 (thoracic aorta of rats): 600 nM | Reduction in the LDL-VLDL fraction [2]: 35% | Reduction in the total cholesterol [2]: 33% | Inhibiting activity, 5-HT2 receptor binding (5-HT2 receptors): 79%

IC50 (thoracic aorta of rats): 500 nM
SMILES: O=C(C1=COc2cc(O)ccc2O1)N1CCN(C(c2ccc(F)cc2)c2ccc(F)cc2)CC1 [Example 1, 6-HYDROXY-2-{4-[BIS(4-FLUOROPHENYL)METHYL]PIPERAZIN-1-YLCARBONYL}-1,4-BENZODIOXIN]
Inhibiting activity (B4 leukotriene release) (lipoxygenase): 62% | minimal effective concentration [3]: 20 µM | Time until the first gasps occur ([4]; 2,5 mg/kg i.p.): 108 s | LDL form B separated by FPLC (native form), percentage of LDLs (native human LDLs): 95% | LDL oxidised form C separated by FPLC, percentage of LDLs (native human LDLs): 5% | inhibition at 10 µM [1]: 62%

SMILES: CC(C)(Sc1cc(C(C)(C)C)c(O)c(C(C)(C)C)c1)Sc1cc(C(C)(C)C)c(O)c(C(C)(C)C)c1 [probucol, reference compound]
LDL oxidised form D separated by FPLC, percentage of LDLs (native human LDLs): 80% | LDL oxidised form E (most oxidised) separated by FPLC, percentage of LDLs (native human LDLs): 20%

SMILES: CC[C@]12CCCN3CCc4c(n(c5ccccc45)[C@@](O)(C(=O)OC)C1)[C@@H]32 [Vincamine, reference compound]
Time until the first gasps occur ([4]; 20 mg/kg i.p.): 147 ± 14 s | Time until the first gasps occur ([4]; 2,5 mg/kg i.p.): inactive

SMILES: O=C(C1=COc2ccc(O)cc2O1)N1CCN(C(c2ccc(F)cc2)c2ccc(F)cc2)CC1 [Example 2, 7-HYDROXY-2-{4-[BIS(4-FLUOROPHENYL)METHYL]PIPERAZIN-1-YLCARBONYL}-1,4-BENZODIOXIN]
inhibition at 10 µM [1]: 100%

SMILES: O=C(Nc1ccccc1)C1=COc2cc(O)ccc2O1 [Example 10, 6-HYDROXY-2-ANILINOCARBONYL-1,4-BENZODIOXIN]
Time until the first gasps occur ([4]; 2,5 mg/kg i.p.): 97 s | inhibition at 10 µM [1]: 100%

SMILES: O=C(Nc1ccccc1)C1COc2cc(O)ccc2O1 (centres unmarked) [Example 11, 6-HYDROXY-2-ANILINOCARBONYL-2,3-DIHYDRO-1,4-BENZODIOXIN]
inhibition at 10 µM [1]: 100%

SMILES: O=C(C1COc2cc(O)ccc2O1)N1CCN(C(c2ccc(F)cc2)c2ccc(F)cc2)CC1 (centres unmarked) [Example 3, 6-HYDROXY-2-{4-[BIS(4-FLUOROPHENYL)METHYL]PIPERAZIN -1-YLCARBONYL}-2,3-DIHYDRO-1,4-BENZODIOXIN]
inhibition at 10 µM [1]: 88%

SMILES: COc1ccc(CN2CCN(C(=O)C3COc4ccc(O)cc4O3)CC2)c(OC)c1OC (centres unmarked) [Example 17, 7-HYDROXY-2-[4-(2,3,4-TRIMETHOXYBENZYL)PIPERAZIN-1-YLCARBONYL]-2,3-DIHYDRO- 1,4-BENZODIOXIN]
inhibition at 10 µM [1]: 100%

SMILES: O=C(Nc1ccccc1)C1COc2ccc(O)cc2O1 (centres unmarked) [Example 12, 7-HYDROXY-2-ANILINOCARBONYL-2,3-DIHYDRO-1,4-BENZOP DIOXIN]
inhibition at 10 µM [1]: 100%
